# Key:
# [1] = test system: dog hepatocytes; experiment: Hepatocyte intrinsic clearance, dog; assay type: in vitro ADME
# Text: (§1) In human, rat, rabbit, dog and monkey hepatocytes, the metabolite profile of RE104 was qualitatively similar across these species with only minor differences.
# [2] = test system: healthy females; experiment: Phase 1 FIH study: Mystical Experience Questionnaire (MEQ30); assay type: in vivo, human
# Protocol: The study was a double-blind, randomized, placebo-controlled Phase 1 single ascending dose study in up to 6 cohorts in healthy females. Eligibility was assessed during a screening period of up to 28 days prior to enrollment. For the treatment period, subjects were admitted to the clinical research unit (CRU) one day prior to the dosing (Day −1). On Day 1, all subjects will received the assigned SC dose of RE104 HCl or placebo in a fed state (after domiciling overnight and consuming a planned evening meal on Day −1 and morning meal on Day 1 while at the CRU). Subjects were allowed to select snacks from a planned menu from 4 hours following dosing. Subjects were discharged from the clinic on Day 2 (−24 hours post-dose) after all required study procedures were completed and if deemed medically fit. Subjects returned to the clinic on Day 10 (±2 days) for a follow up visit.
# The Mystical Experience Questionnaire (MEQ30) is a validated questionnaire that assesses individual episodes of a mystical experience produced by classic hallucinogens (Barrett et al. 2015). The validated MEQ30 uses thirty questions across 4 areas of experience: (i) Mystical (including items concerning internal unity, external unity, noetic quality, and sacredness); (ii) Positive mood; (iii) Transcendence of time and space; and (iv) Ineffability. The subjects will be asked to rate each item of the MEQ30 on a 6-point scale. FIG. 3 sets out the revised MEQ30 that was used.
# [3] = test system: rats; experiment: GLP 14-day extended single SC dose toxicity study in rats
# Protocol: (§2) In a GLP 14-day extended single SC dose toxicity study in rats, doses of 0 (PBS), 10, 25 and 75 mg/kg were evaluated. Animals were necropsied on Study Day 2 and Day 14 (also referred to as Recovery Day 13) post-dosing.
# (§3) A non-GLP dose range study was performed in the dog in order to determine an MTD. Single SC doses of 7.5, 15 and 20 mg/kg were evaluated.
# [4] = as above; settings: rat; for NOAEL at 14 days: in vivo
# Protocol: as §2, §3
# [5] = test system: human hepatocytes; experiment: Hepatocyte intrinsic clearance, human; assay type: in vitro ADME
# Text: as §1
# [6] = Prodrug cleavage in mouse plasma; assay type: in vitro ADME; settings: 37° C.
# Protocol: Mean values from 3 replicate assays are reported. See the Supplemental Methods for additional details.
# Triplicate aliquots (50 μL) of each spiked plasma solution were immediately added to 200 μL of ice-cold methanol/acetonitrile solution (50:50 v/v) containing the internal standards to generate time zero samples. Spiked plasma solutions were incubated at 37° C. in an orbital shaker set to 75 rpm, and 50-μL samples were taken in triplicate after 30 minutes and 1, 2, and 4 hours of incubation. Each sample was immediately added to 200 μL ofice-cold methanol/acetonitrile solution containing the internal standard(s) to terminate the reaction. Samples were mixed by vortex and then stored at −80° C. until analysis.
# Calibration standards were prepared in plasma for each species and analyzed in batches by LC-MS/MS. Sample batches consisted of 3 replicates of a system suitability standard (containing the analyte and internal standard), the appropriate calibration standards in ascending order including a blank sample without internal standard, a zero sample (with internal standard), and at least 6 nonzero standards and the assay samples, followed by the 3 replicates of the system suitability sample.
# [7] = Metabolite profiling in monkey plasma after SC RE104; assay type: in vivo, cynomolgus monkey; settings: pooled plasma 0 to 12 hours post dose, SC 0.5 mg/kg RE104
# Text: Blood samples were centrifuged to obtain plasma.
compound,measurement,setting,value
CC(C)N(CCc1c[nH]c2cccc(OC(=O)CCCC(=O)O)c12)C(C)C [RE104],in vitro intrinsic clearance (CLint),[1],0.87 mL/hr/106 cells
same,Participants with MEQ total score ≥60%,"[2]; RE104 5.5 mg, n 6",0%
same,Participants with MEQ total score ≥60%,"[2]; RE104 11 mg, n 6",50%
same,Participants with MEQ total score ≥60%,"[2]; RE104 22 mg, n 6",16.7%
same,Participants with MEQ total score ≥60%,"[2]; RE104 33 mg, n 9",66.7%
same,Participants with MEQ total score ≥60%,"[2]; RE104 38 mg, n 6",83.3%
same,Participants with MEQ total score ≥60%,"[2]; RE104 44 mg, n 3",100%
same,human equivalent dose [HED] of the 10 mg/kg rat dose,"[3]; expressed as zwitterion, 60 kg human, BSA conversion",approximately 97 mg
same,low adverse effect level (LOAEL),[3]; male rats,10 mg/kg
same,1/10 of HED,[3]; rat,0.16 mg/kg
same,1/10 of Human BSA dose,[3]; rat,9.7 mg
same,Human BSA dose,[3]; rat,60 mg/m^2
same,fold HED higher than proposed starting dose,[3]; rat HED vs 5 mg (zwitterion),approximately 19 fold
same,fold HED higher than maximum proposed dose,[3]; rat HED vs 48 mg (zwitterion),~2 fold
same,HED,"[3]; rat NOAEL, BSA conversion factors",1.6 mg/kg
same,Human BSA dose,"[3]; rat, based on a BSA of 1.62 m^2",97.2 mg
same,NOAEL at 14 days,"[4]; Sprague Dawley, sc",10 mg/kg
same,Cmax,"[4]; Sprague Dawley, plasma, sc, 10 mg/kg",0.751 ng/mL
same,NOAEL at 14 days,"[4]; both, Sprague Dawley, sc",10 mg/kg
same,NOAEL at 14 days,"[4]; female, subcutaneous",10 mg/kg
same,in vitro intrinsic clearance (CLint),[5],3.45 mL/hr/106 cells
same,completeness of conversion,[6],> 95%
same,time of conversion to 4-OH-DiPT,[6],< 30 min
same,share of the total peak area,[7],71.1%

# Reference: patent publication US20250319067A1, “Improved Pharmacokinetics of Tryptamine Prodrugs” (Reunion Neuroscience, Inc., priority 2023, published 2025)
